This is an account of results in patent US12583866B2, “Pyrido[2,3-b][1,4]oxazines or tetrahydropyrido[2,3-b][1,4]oxazepines as IAP antagonists” (BEIGENE, LTD., priority 2020, dated 2026).

As a reminder, the IC50 is the point on the concentration scale where inhibition reaches its midpoint.

The target of assay [1] is T1, recombinant human cIAP1-BIR3 protein (Homo sapiens, UniProt Q13490).
T1 construct: recombinant human cIAP1-BIR3 protein; purchased Reaction biology APT-11-370
The assay can be described thus: Recombinant human c-IAP1-BIR3 biochemical assay (HTRF, peptide displacement). The settings on record: 1.2 nM cIAP1-BIR3, 3 nM AbuRPF-K(5-Fam)-NH2 peptide, read-out: Protein binding IC50 (nM) c-IAP1. An outline of the steps:
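HTRF peptide displacement: after 1 h compound pre-incubation (max 10 uM, 4-fold dilutions, 10 points) with 1.2 nM protein in HEPES pH 7.5 buffer, 3 nM 5-Fam-labelled AbuRPF-K peptide and Tb-anti-6His were each added for 1 h at room temperature. Inhibition taken from 520/490 nm ratio, fitted four-parameter logistic for IC50.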
On the technique in general: In TR-FRET formats the signal depends on donor and acceptor labels being close together.

In assay [2] the target is T2, recombinant human cIAP2-BIR3 protein (Homo sapiens, UniProt Q13489).
T2 construct: recombinant human cIAP2-BIR3 protein; purchased Reaction biology APT-11-372
The assay can be described thus: Recombinant human c-IAP2-BIR3 biochemical assay (HTRF, peptide displacement). The settings on record: 3.7 nM cIAP2-BIR3, 3.7 nM AbuRPF-K(5-Fam)-NH2 peptide, read-out: Protein binding IC50 (nM) c-IAP2. An outline of the steps: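 HTRF peptide-displacement readout (ex337, em520/490 ratio) after sequential 1 h room-temperature steps: compound with 3.7 nM protein, then 3.7 nM 5-Fam-labelled AbuRPF peptide, then Tb-cryptate anti-6His antibody. Buffer pH 7.5 HEPES with NaCl, Tween-20, DTT; 10-point 4-fold dilutions from 10 uM; four-parameter logistic IC50.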

Assay [3] deals with T3, recombinant human XIAP-BIR3 protein (Homo sapiens, UniProt P98170).
T3 construct: recombinant human XIAP-BIR3 protein; purchased Reaction biology APT-11-374
Kind of assay: Recombinant human XIAP-BIR3 biochemical assay (HTRF, peptide displacement). The settings on record: 3.7 nM XIAP-BIR3, 7.6 nM AbuRPF-K(5-Fam)-NH2 peptide, read-out: Protein binding IC50 (nM) XIAP. The essentials: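 HTRF peptide displacement with 7.6 nM 5-Fam-labelled AbuRPF peptide, anti-6His Tb donor and 3.7 nM recombinant XIAP-BIR3. Protein and compound (10-point, 4-fold from 10 µM) were preincubated 1 h RT in HEPES pH 7.5 buffer before each addition, each 1 h. IC50 by four-parameter fit of the 520/490 nm ratio.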

T2 sequence (Q13489 238-349 limits assumed): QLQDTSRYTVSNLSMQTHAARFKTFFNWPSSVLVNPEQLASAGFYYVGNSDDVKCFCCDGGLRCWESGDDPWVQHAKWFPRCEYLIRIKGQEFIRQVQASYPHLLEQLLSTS
T3 sequence (P98170 241-356 limits assumed): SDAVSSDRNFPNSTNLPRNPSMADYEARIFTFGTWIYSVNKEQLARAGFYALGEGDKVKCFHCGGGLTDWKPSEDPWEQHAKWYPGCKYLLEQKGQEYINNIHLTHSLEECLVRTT
T1 sequence (Q13490 253-363 limits assumed): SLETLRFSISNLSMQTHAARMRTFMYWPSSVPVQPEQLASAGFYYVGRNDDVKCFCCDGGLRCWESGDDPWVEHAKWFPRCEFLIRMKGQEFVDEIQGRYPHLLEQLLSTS

Take `C[C@@H]1CN(CC(=O)N2c3cc(Cc4ccc(F)cc4)c(C(=O)N4CCOCC4)nc3OC[C@@H]2C)[C@@H](CN2[C@H](C)COC[C@H]2C)CN1` [Example 72, 2-((2R,5R)-2-(((3R,5R)-3,5-dimethylmorpholino)methyl)-5-methylpiperazin-1-yl)-1-((S)-7-(4-fluorobenzyl)-2-methyl-6-(morpholine-4-carbonyl)-2,3-dihydro-1H-pyrido[2,3-b][1,4]oxazin-1-yl)ethan-1-one]: the IC50 in assay [1] worked out at 0.35 nM; in assay [2], 0.42 nM; in assay [3], 7.6 nM.
For `C[C@@H]1CN(CC(=O)N2CCOc3nc(C4(O)CC4)c(Cc4ccc(F)cc4)cc32)[C@@H](CN2CCOC[C@H]2C)CN1` [Compound 21, 1-(7-(4-fluorobenzyl)-6-(1-hydroxycyclopropyl)-2,3-dihydro-1H-pyrido[2,3-b][1,4]oxazin-1-yl)-2-((2R,5R)-5-methyl-2-(((R)-3-methylmorpholino)methyl)piperazin-1-yl)ethan-1-one], the IC50 in assay [1] was found to be 2.6 nM; in assay [2], 5.75 nM; in assay [3] it was 41 nM.
The matching figures for `C[C@@H]1CN(CC(=O)N2c3cc(Cc4ccc(F)cc4)c(NS(=O)(=O)C4CC4)nc3OC[C@@H]2C)[C@@H](CN2[C@H](C)COC[C@H]2C)CN1` [Compound 123, N—((S)-1-(2-((2R,5R)-2-(((3R,5R)-3,5-dimethylmorpholino)methyl)-5-methylpiperazin-1-yl)acetyl)-7-(4-fluorobenzyl)-2-methyl-2,3-dihydro-1H-pyrido[2,3-b][1,4]oxazin-6-yl)cyclopropanesulfonamide]: 0.2 nM, 0.35 nM and 4.4 nM.
The matching figures for `CC(C)NC(=O)c1nc2c(cc1Cc1ccc(F)cc1)N(C(=O)CN1C[C@@H](C)NC[C@@H]1CN1[C@H](C)COC[C@H]1C)[C@@H](C)CO2` [Example 69, (S)-1-(2-((2R,5R)-2-(((3R,5R)-3,5-dimethylmorpholino)methyl)-5-methylpiperazin-1-yl)acetyl)-7-(4-fluorobenzyl)-N-isopropyl-2-methyl-2,3-dihydro-1H-pyrido[2,3-b][1,4]oxazine-6-carboxamide]: 0.16 nM, 0.37 nM and 3.7 nM.
Consider `COC[C@H]1COc2nc(CO)c(Cc3ccc(F)cc3)cc2N1C(=O)CN1C[C@@H](C)NC[C@@H]1CN1CCOC[C@H]1C` [Compound 57, 1-((S)-7-(4-fluorobenzyl)-6-(hydroxymethyl)-2-(methoxymethyl)-2,3-dihydro-1H-pyrido[2,3-b][1,4]oxazin-1-yl)-2-((2R,5R)-5-methyl-2-(((R)-3-methylmorpholino)methyl)piperazin-1-yl)ethan-1-one], for which the IC50 in assay [1] was 1.2 nM; in assay [2], 1.9 nM; in assay [3], 95 nM.
In the same order, the values of `C[C@@H]1CN(CC(=O)N2CCOc3ncc(Cc4ccc(F)cc4)cc32)[C@@H](CN2[C@H](C)COC[C@H]2C)CN1` [Compound 16, 2-((2R,5R)-2-(((3R,5R)-3,5-dimethylmorpholino)methyl)-5-methylpiperazin-1-yl)-1-(7-(4-fluorobenzyl)-2,3-dihydro-1H-pyrido[2,3-b][1,4]oxazin-1-yl)ethan-1-one] are 0.34 nM, 0.85 nM and 8.4 nM.
In the same order, the values of `C[C@@H]1CN(CC(=O)N2c3cc(Cc4ccc(F)cc4)c(N4CCOCC4)nc3OC[C@@H]2C)[C@@H](CN2[C@H](C)COC[C@H]2C)CN1` [Compound 106, 2-((2R,5R)-2-(((3R,5R)-3,5-dimethylmorpholino)methyl)-5-methylpiperazin-1-yl)-1-((S)-7-(4-fluorobenzyl)-2-methyl-6-morpholino-2,3-dihydro-1H-pyrido[2,3-b][1,4]oxazin-1-yl)ethan-1-one] are 0.33 nM, 0.94 nM and 16.9 nM.
In the same order, the values of `C[C@@H]1CN(CC(=O)N2CC(C)(C)Oc3nc(Br)c(Cc4ccc(F)cc4)cc32)[C@@H](CN2CCOC[C@H]2C)CN1` [Compound 12, 1-(6-bromo-7-(4-fluorobenzyl)-3,3-dimethyl-2,3-dihydro-1H-pyrido[2,3-b][1,4]oxazin-1-yl)-2-((2R,5R)-5-methyl-2-(((R)-3-methylmorpholino)methyl)piperazin-1-yl)ethan-1-one] are 16 nM, 44 nM and 561 nM.
Consider `COC[C@H]1COc2ncc(Cc3ccc(F)cc3)cc2N1C(=O)CN1C[C@@H](C)NC[C@@H]1CN1CCOC[C@H]1C` [Compound 35, 1-((S)-7-(4-fluorobenzyl)-2-(methoxymethyl)-2,3-dihydro-1H-pyrido[2,3-b][1,4]oxazin-1-yl)-2-((2R,5R)-5-methyl-2-(((R)-3-methylmorpholino)methyl)piperazin-1-yl)ethan-1-one], for which the IC50 in assay [1] amounted to 0.33 nM; in assay [2] it was 0.99 nM; in assay [3], 46 nM.
In the same order, the values of `CC(C)OC[C@H]1COc2ncc(Cc3ccc(F)cc3)cc2N1C(=O)CN1C[C@@H](C)NC[C@@H]1CN1CCOC[C@H]1C` [Compound 38, 1-((S)-7-(4-fluorobenzyl)-2-(isopropoxymethyl)-2,3-dihydro-1H-pyrido[2,3-b][1,4]oxazin-1-yl)-2-((2R,5R)-5-methyl-2-(((R)-3-methylmorpholino)methyl)piperazin-1-yl)ethan-1-one] are 0.26 nM, 0.83 nM and 49 nM.
With `C[C@@H]1CN(CC(=O)N2c3cc(Cc4ccc(F)cc4)cnc3OC[C@H]2C)[C@@H](CN2CCOC[C@H]2C)CN1` [Compound 19B, 1-((R)-7-(4-fluorobenzyl)-2-methyl-2,3-dihydro-1H-pyrido[2,3-b][1,4]oxazin-1-yl)-2-((2R,5R)-5-methyl-2-(((R)-3-methylmorpholino)methyl)piperazin-1-yl)ethan-1-one], the IC50 stood at 6.4 nM in assay [1], 27 nM in assay [2] and 33 nM in assay [3].
Turning to `CCOc1nc2c(cc1Cc1ccc(F)cc1)N(C(=O)CN1C[C@@H](C)NC[C@@H]1CN1[C@H](C)COC[C@H]1C)[C@@H](C)CO2` [Compound 87], the IC50 in assay [1] stood at 0.18 nM; in assay [2], 0.23 nM; in assay [3] it was 3.3 nM.
The matching figures for `C[C@@H]1CN(CC(=O)N2c3cc(Cc4ccc(F)cc4)c(C(=O)NCCO)nc3OC[C@@H]2C)[C@@H](CN2[C@H](C)COC[C@H]2C)CN1` [Example 73, (S)-1-(2-((2R,5R)-2-(((3R,5R)-3,5-dimethylmorpholino)methyl)-5-methylpiperazin-1-yl)acetyl)-7-(4-fluorobenzyl)-N-(2-hydroxyethyl)-2-methyl-2,3-dihydro-1H-pyrido[2,3-b][1,4]oxazine-6-carboxamide]: 0.18 nM, 0.29 nM and 4.3 nM.
The matching figures for `C[C@@H]1CN(CC(=O)N2c3cc(Cc4ccc(F)cc4)c(CO)nc3OC[C@@H]2C)[C@@H](CN2CCOC[C@@H]2C2CC2)CN1` [Example 84B]: 0.78 nM, 1.6 nM and 46 nM.
The matching figures for `C[C@@H]1CN(CC(=O)N2c3cc(Cc4ccc(F)cc4)c(C(=O)N[C@@H]4CCOC4)nc3OC[C@@H]2C)[C@@H](CN2[C@H](C)COC[C@H]2C)CN1` [Example 78, (S)-1-(2-((2R,5R)-2-(((3R,5R)-3,5-dimethylmorpholino)methyl)-5-methylpiperazin-1-yl)acetyl)-7-(4-fluorobenzyl)-2-methyl-N—((R)-tetrahydrofuran-3-yl)-2,3-dihydro-1H-pyrido[2,3-b][1,4]oxazine-6-carboxamide]: 0.17 nM, 0.31 nM and 3.2 nM.
For the compound `C[C@@H]1CN(CC(=O)N2c3cc(Cc4ccc(F)cc4)cnc3OC[C@@H]2c2ccccc2)[C@@H](CN2CCOC[C@H]2C)CN1` [Compound 45, 1-((S)-7-(4-fluorobenzyl)-2-phenyl-2,3-dihydro-1H-pyrido[2,3-b][1,4]oxazin-1-yl)-2-((2R,5R)-5-methyl-2-(((R)-3-methylmorpholino)methyl)piperazin-1-yl)ethan-1-one], the IC50 in assay [1] worked out at 0.34 nM; in assay [2] it was 0.65 nM; in assay [3], 8.5 nM.
The matching figures for `C[C@@H]1CN(CC(=O)N2CCOc3ncc(Cc4ccc(F)cc4)cc32)[C@@H](CN2C(=O)OC[C@H]2C(F)F)CN1` [Compound 15, (S)-4-(difluoromethyl)-3-(((2R,5R)-1-(2-(7-(4-fluorobenzyl)-2,3-dihydro-1H-pyrido[2,3-b][1,4]oxazin-1-yl)-2-oxoethyl)-5-methylpiperazin-2-yl)methyl)oxazolidin-2-one]: 3.4 nM, 6.9 nM and 196 nM.
